How the values were obtained:
[1] = test system: Myeloperoxidase (MPO); assay: Myeloperoxidase (MPO) assay, neutrophil activity in liver tissue; design: species or system Sprague Dawley (SD) rats; settings: liver tissue at conclusion of 2 h reperfusion with CO
Experimental: Myeloperoxidase (MPO) assay. MPO is a naturally occurring constituent of neutrophils and is used as a marker for neutrophil infiltration. Frozen tissue samples were thawed and suspended in an iced solution of 0.5% hexadecyltrimethyl-ammonium (Sigma) and 50 mMol potassium phosphate buffer solution (Sigma) with pH adjusted to 5. Samples are homogenized for 30 sec, centrifuged at 15,000 rpm for 15 min at 4° C. 0.1 ml of the supernatant was then mixed in solution of hydrogen peroxide-sodium acetate and tetramethyl benzidine (Sigma). The change in absorbance at 460 run was measured with a Beckman DU spectrophotometer (Beckman Institute, Fullerton, Calif.). The quantity of enzyme degrading 1 μMol peroxide per minute at 25° C. per gram of tissue was defined as one unit of MPO activity.

[2] = test system: C57BL/6 ApoE (−/−) mice; assay: Carotid wire injury in atherogenic ApoE-/- mouse, neointimal formation; type: in vivo; settings: day -1 to day 28
Experimental: The effects of CO generated though metabolic degradation of methylene chloride are investigated in an atherosclerotic mouse carotid intimal denudation model. Female C57BL/6 ApoE (−/−) mice (10-12 weeks old, n=12/group) are fed Western diet for 1 week prior to injury and 4 weeks after injury. On day 0 mice are anesthesized with ip injection of ketamine (80 mg/kg) & xylazine (5 mg/kg). The left carotid artery is isolated and two ligatures (6-O silk) are placed around the external carotid artery, ligatures are also placed around the common and internal carotid arteries. After the distal external carotid ligatures are tied, the carotid is incised with Vannas scissors proximal to the ligature. A curved flexible wire (0.35 mm/0.014 in diameter) is introduced into the external carotid and passed three times along the wall of the common carotid while being rotated. Upon removal of the wire the proximal carotid ligature is tied and the skin is reopposed with 6-O silk.
Methylene chloride (25, 100, 400 mg/kg/day) is administered intraperitoneally or orally starting on day-1 until day 28. A control group is treated with vehicle. On day 28 animals are sacrificed and after incision, the right and left common, external, and internal carotids are ligated. After sternotomy, common carotids are dissected further to the aortic arch. A 27-gauge needle is placed in the left ventricle and a systemic perfusion with phosphate buffered paraformaldehyde (100 mM, 4% wt/vol, pH 7.3) is performed at 100 mmHg via the left ventricular cannula. Subsequently, the common, internal and external carotid arteries are transected and removed. Specimens are dehydrated in ethanol and xylene, and embedded in paraffin. Tissue sections are stained and VSMC proliferation is assessed microscopically by histomorphometry. Methylene chloride therapy at 400, 100, and 25 mg/kg/day inhibits neointimal formation by 90%, 75% and 30% respectively.

[3] = Systemic COHb and blood chemistry after oral methylene chloride in rats; type: in vivo, rat; settings: MC-treated rats, 500 mg/kg daily
Experimental: MC (Sigma, St. Louis, Mo.) was diluted in olive oil and administered orally on a daily basis (from day 0 to 30) at 500 mg/kg. This dose saturates the cytochrome P-450 oxidative system, and yields maximal COHb values of 10% COHb in venous or aortic blood. Gargas et al. and Andersen et al., supra; Wirkner et al., Toxicol. App. PharmacoL 143:83-88 (1997). […] Id. […] Kirschman, Fd. Chem. Toxic. 24:943-49 (1986); Dhillon and Von Burg, Toxicology Update 1:329-35 (1995). MC may show liver and central nervous system toxicity at higher doses and/or longer exposures. Id. COHb levels were evaluated in heparinized venous blood using the VOXimeter sensor (A-VOX Systems, San Antonio, Tex.) and expressed as the percentage of total hemoglobin. Bicarbonates, soluble CO2, total CO2 and pH were measured using standard clinical biochemistry techniques (Laboratory of Biochemistry, University Hospital of Nantes).

SMILES	MPO activity [1] [U/mg]	inhibition of neointimal formation ([2]; 25 mg/kg/day) [%]	inhibition of neointimal formation ([2]; 100 mg/kg/day) [%]	inhibition of neointimal formation ([2]; 400 mg/kg/day) [%]	behavior, food consumption, gross necropsy [3]
[C-]#[O+] [CO, carbon monoxide]	1.3±0.2	–	–	–	–
ClCCl [methylene chloride]	–	30	75	90	normal behavior, food consumption and no particular gross necropsy alterations

Reference: patent US20040143025A1, “Carbon monoxide generating compunds for treatment of vascular, inflammatory and immune disorders” (priority 2002, published 2004)
